A word on the pIC50: it is the IC50 on a negative log10 scale, so that one unit is a factor of ten. Usually IC50 stands for the midpoint of a concentration-inhibition curve. Usually AUC(0-inf) stands for the area under the concentration-time curve extrapolated to infinity. By inhibition is commonly meant how much of the control response was suppressed.

Results on two compounds are retold here after ChEMBL document CHEMBL4387706, “Discovery of Novel Spiroindoline Derivatives as Selective Tankyrase Inhibitors” (J Med Chem, 2019).

pIC50: −log10 of the molar value. A value given as a limit tells only on which side of the number the result lay.

The target of data set [1] is T1, Poly [ADP-ribose] polymerase tankyrase-1 (Homo sapiens, UniProt O95271).
T1 sequence (O95271 whole entry): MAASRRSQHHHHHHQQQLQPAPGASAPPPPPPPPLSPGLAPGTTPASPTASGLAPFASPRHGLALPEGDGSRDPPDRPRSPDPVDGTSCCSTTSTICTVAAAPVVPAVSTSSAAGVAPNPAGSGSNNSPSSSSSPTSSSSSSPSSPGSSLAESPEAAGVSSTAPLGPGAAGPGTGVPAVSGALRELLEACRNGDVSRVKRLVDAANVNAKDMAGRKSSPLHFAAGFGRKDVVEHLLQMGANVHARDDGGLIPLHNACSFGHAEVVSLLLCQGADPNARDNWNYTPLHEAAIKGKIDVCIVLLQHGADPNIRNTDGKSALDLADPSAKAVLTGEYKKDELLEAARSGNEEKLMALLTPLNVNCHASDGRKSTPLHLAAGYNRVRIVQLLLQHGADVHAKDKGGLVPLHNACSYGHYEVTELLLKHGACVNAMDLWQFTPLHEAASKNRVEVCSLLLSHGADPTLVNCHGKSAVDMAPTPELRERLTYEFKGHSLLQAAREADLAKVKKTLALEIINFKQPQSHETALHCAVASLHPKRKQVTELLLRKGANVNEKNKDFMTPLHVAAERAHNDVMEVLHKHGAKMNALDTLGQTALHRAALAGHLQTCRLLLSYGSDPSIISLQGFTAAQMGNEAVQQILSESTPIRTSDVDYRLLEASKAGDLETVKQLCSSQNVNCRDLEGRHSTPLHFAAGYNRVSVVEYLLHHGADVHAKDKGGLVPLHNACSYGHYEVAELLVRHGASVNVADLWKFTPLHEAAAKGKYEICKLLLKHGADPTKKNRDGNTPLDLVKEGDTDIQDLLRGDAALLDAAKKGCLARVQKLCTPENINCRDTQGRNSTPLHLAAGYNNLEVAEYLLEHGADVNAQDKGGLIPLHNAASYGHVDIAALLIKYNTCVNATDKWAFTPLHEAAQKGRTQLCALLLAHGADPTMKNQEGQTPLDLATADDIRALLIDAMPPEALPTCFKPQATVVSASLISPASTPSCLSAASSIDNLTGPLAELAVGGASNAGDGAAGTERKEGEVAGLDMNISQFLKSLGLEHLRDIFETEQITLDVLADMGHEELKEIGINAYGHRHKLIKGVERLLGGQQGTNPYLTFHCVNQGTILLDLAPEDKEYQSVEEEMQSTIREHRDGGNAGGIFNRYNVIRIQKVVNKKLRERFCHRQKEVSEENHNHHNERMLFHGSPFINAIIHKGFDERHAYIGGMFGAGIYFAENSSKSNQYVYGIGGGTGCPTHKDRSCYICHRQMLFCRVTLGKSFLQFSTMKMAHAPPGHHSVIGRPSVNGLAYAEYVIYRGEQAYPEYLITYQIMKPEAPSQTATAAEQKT
Description: Inhibition of recombinant human N-terminal TEV cleavage site-fused/FLAG-poly his-tagged TNKS SAM-PARP domain (1024 to 1327 residues) expressed in Escherichia coli assessed as reduction in auto-PARylation preincubated for 10 mins followed by biotinylated-NAD+ addition and measured after 45 mins by ELISA

The target of data set [2] is T2, Tankyrase 1/2 (Homo sapiens, UniProt Q9H2K2+O95271).
T2 sequence (Q9H2K2 whole entry): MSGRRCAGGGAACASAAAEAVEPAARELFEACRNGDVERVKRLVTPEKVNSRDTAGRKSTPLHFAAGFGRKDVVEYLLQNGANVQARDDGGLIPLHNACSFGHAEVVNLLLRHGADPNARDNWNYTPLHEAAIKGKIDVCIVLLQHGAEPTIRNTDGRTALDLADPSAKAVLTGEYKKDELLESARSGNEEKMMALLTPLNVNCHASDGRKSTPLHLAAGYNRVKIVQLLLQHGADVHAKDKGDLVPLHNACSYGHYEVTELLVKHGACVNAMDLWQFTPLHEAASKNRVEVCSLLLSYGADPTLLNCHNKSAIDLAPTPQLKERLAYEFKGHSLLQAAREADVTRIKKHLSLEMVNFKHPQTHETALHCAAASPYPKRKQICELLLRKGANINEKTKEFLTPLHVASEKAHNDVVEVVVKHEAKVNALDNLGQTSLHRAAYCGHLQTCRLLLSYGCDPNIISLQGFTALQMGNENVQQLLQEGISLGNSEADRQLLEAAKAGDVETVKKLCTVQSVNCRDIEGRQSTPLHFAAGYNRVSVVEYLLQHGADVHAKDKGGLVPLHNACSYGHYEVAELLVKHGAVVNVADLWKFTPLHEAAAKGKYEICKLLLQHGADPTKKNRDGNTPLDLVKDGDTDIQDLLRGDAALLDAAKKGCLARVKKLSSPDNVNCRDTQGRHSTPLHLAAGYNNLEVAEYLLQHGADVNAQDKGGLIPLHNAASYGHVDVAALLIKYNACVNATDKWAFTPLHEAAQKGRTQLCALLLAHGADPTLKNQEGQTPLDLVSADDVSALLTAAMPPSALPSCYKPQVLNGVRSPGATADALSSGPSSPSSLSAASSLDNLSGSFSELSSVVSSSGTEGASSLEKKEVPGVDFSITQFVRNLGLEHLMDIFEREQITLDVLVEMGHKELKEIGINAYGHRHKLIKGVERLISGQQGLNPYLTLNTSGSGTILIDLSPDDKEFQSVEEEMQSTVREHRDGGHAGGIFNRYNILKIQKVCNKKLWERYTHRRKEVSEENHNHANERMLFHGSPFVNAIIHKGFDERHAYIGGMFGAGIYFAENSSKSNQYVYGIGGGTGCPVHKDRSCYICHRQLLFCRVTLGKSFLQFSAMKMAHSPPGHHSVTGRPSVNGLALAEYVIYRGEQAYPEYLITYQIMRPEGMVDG
T2 sequence (O95271 whole entry): T1 sequence (O95271 whole entry)
The following applies: hek293.
Description: Inhibition of TNKS/TNKS2 (unknown origin) expressed in HEK293 cells assessed as reduction in Wnt-signaling measured after 24 hrs by TCF-luciferase reporter gene assay

Data set [3] in a line: AUC (infinity) in ICR mouse at 50 mg/kg, ip. The data set is classed as ADME, organism-based. Further details: dose 50 mg/kg, route intraperitoneal, time infinity. The following applies: in vivo.
For data set [4], the target named is cGMP-inhibited 3',5'-cyclic phosphodiesterase 3A (Homo sapiens) (UniProt Q14432). Briefly: Inhibition of full-length recombinant human PDE3A at 10 uM using FAM-cAMP as substrate measured after 30 mins by spectrofluorimetric method relative to control.
Chain of cGMP-inhibited 3',5'-cyclic phosphodiesterase 3A (Homo sapiens) (Q14432 whole entry): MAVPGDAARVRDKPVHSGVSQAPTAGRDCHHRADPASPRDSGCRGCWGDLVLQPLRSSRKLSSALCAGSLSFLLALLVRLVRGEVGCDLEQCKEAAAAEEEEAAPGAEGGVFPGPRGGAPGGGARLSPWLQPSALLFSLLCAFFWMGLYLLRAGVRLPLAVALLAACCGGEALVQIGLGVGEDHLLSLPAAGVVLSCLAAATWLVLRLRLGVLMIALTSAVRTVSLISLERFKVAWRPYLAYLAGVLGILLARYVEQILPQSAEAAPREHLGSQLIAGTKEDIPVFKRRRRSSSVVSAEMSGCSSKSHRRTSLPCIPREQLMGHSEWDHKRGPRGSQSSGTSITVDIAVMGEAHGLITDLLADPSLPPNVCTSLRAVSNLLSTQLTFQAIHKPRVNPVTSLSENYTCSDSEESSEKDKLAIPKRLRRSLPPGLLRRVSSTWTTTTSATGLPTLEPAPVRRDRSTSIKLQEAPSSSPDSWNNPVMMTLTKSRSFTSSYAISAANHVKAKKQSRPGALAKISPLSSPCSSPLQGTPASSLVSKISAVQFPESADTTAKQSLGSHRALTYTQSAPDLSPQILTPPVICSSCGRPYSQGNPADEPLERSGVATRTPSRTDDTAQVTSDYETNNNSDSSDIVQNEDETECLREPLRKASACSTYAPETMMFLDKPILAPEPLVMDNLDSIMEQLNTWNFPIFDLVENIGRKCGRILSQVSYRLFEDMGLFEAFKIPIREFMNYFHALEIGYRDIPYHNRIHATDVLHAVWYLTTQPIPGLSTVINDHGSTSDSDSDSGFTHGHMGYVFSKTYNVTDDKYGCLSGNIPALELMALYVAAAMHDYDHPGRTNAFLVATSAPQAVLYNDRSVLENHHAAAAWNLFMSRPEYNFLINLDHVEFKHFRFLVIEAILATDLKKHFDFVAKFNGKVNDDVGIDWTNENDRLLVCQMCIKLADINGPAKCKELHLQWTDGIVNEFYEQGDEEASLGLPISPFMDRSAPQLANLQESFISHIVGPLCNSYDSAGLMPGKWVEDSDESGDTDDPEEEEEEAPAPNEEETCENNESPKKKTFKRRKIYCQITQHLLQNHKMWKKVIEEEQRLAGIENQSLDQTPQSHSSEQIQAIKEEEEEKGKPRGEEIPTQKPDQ

In turn, `COc1ccccc1N1CCN(c2nc3c(c(=O)[nH]2)CCCC3)CC1` showed a pIC50 in data set [1] of 7.69. The IC50 in data set [2] is on record as 42.9 nM.
`O=c1[nH]c(N2CCC3(CC2)CN(CCO)c2cc(F)cc(F)c23)nc2c1CCCC2` gave an area under the curve AUC(0-inf) in data set [3] of 555 µM·h. Further, the inhibition in data set [4] is greater than 20%.
